These results are taken from ChEMBL document CHEMBL1130322, “Anticancer and antiviral effects and inactivation of S-adenosyl-L-homocysteine hydrolase with 5'-carboxaldehydes and oximes synthesized from adenosine and sugar-modified analogues” (J Med Chem, 1997).

One assay relates to L1210. As to the kind of experiment: cells. The following applies: Mus musculus.
The test system of assay [1] is Vero. As to the kind of experiment: cells. The following applies: Chlorocebus sabaeus.
Assay [2] concerns Respiratory syncytial virus. As to the kind of experiment: microbe, parasite or virus in culture. The conditions noted are these: human respiratory syncytial virus, HeLa.
The test system of assay [3] is HeLa. As to the kind of experiment: Minimum inhibitory concentration required to effect a microscopically visible change of cell morphology in HeLa cell culture. Format: functional, Homo sapiens. The arrangement: unit not given here.
Another assay deals with E6SM. The assay is described as follows: Minimum inhibitory concentration required to effect a microscopically visible change of cell morphology in human embryonic skin-muscle (E6SM) cell culture. It is filed as functional. The arrangement: unit not given here.
Assay [4] relates to Human betaherpesvirus 5. As to the kind of experiment: microbe, parasite or virus in culture.
For assay [5], the system named is Vero. As to the kind of experiment: cells. The conditions noted are these: Chlorocebus sabaeus. The source holds these as a separate data set.
Assay [6] has as its system HEL. As to the kind of experiment: (§1) 50% Cytostatic concentration required to inhibit human erythroleukemic (HEL) cell proliferation. It is filed as functional. The arrangement: unit not given here.
For assay [7], the system named is Vero. As to the kind of experiment: cells. The conditions noted are these: Chlorocebus sabaeus. This is another data set of the same source.
The test system of assay [8] is Human betaherpesvirus 5. As to the kind of experiment: microbe, parasite or virus in culture. The source holds these as a separate data set.
The test system of assay [9] is HeLa. As to the kind of experiment: cells. The following applies: Homo sapiens.
The next assay deals with FM3A. As to the kind of experiment: cells. The conditions noted are these: Mus musculus.
In assay [10] the test system is HeLa. The assay is described as follows: cells. The conditions noted are these: Homo sapiens. This is another data set of the same source.
Assay [11] addresses T1, Adenosylhomocysteinase (Homo sapiens, UniProt P23526).
Target sequence in this assay (P23526 whole entry): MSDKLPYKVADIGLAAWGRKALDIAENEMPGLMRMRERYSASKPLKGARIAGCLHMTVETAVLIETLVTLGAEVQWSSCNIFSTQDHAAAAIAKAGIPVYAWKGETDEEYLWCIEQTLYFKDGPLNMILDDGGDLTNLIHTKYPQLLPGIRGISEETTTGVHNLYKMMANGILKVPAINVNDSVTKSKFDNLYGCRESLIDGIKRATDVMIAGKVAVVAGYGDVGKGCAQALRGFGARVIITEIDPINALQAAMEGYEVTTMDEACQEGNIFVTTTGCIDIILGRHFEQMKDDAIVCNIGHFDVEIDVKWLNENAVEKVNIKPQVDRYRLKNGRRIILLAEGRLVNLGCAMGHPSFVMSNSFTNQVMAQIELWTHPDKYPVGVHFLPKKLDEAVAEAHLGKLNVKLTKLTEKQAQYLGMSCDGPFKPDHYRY
Assay [12] has as its system Vero. As to the kind of experiment: cells. The following applies: Chlorocebus sabaeus. This is another data set of the same source.
The test system of a further assay is Human alphaherpesvirus 2. The assay is described as follows: microbe, parasite or virus in culture.
The subject of assay [13] is MDCK. It is filed as functional, Canis lupus familiaris. The arrangement: unit not given here.
In assay [14] the test system is Vero. The assay is described as follows: cells. The conditions noted are these: Chlorocebus sabaeus. This is another data set of the same source.
Assay [15] has as its system Vero. The assay is described as follows: Minimum inhibitory concentration required to effect a microscopically visible change of cell morphology in Vero cell culture. Format: functional, Chlorocebus sabaeus. The arrangement: unit not given here.
Another assay concerns MOLT-4. As to the kind of experiment: cells. The conditions noted are these: Homo sapiens.
Assay [16] deals with MDCK. As to the kind of experiment: cells. The following applies: Canis lupus familiaris.
The subject of another assay is CCRF-CEM. The assay is described as follows: cells. The conditions noted are these: Homo sapiens.
In assay [17] the target is T1, Adenosylhomocysteinase. The source holds these as a separate data set.
Target sequence in this assay (P23526 2-432 limits assumed): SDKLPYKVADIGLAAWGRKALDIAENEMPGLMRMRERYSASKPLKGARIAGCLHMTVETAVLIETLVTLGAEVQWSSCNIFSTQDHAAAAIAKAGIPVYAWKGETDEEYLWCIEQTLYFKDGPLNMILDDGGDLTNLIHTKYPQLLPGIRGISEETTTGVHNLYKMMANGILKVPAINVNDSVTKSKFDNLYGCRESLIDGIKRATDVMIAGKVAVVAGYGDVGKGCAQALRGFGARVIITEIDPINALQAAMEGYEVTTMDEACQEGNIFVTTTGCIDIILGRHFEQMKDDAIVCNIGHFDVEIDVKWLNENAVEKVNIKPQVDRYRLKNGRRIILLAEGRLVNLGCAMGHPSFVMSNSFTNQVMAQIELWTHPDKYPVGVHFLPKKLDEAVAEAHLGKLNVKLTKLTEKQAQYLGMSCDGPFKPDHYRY
Assay [18] concerns Vero. As to the kind of experiment: cells. The conditions noted are these: Chlorocebus sabaeus. The source holds these as a separate data set.
Assay [19] relates to Human alphaherpesvirus 1. The assay is described as follows: microbe, parasite or virus in culture.
Assay [20] relates to MDCK. The assay is described as follows: cells. The conditions noted are these: Canis lupus familiaris. This is another data set of the same source.
Assay [21] deals with Human alphaherpesvirus 1. The assay is described as follows: microbe, parasite or virus in culture. The source holds these as a separate data set.
Assay [22] relates to Human alphaherpesvirus 1. The assay is described as follows: microbe, parasite or virus in culture. This is another data set of the same source.
Assay [23] deals with Human alphaherpesvirus 1. As to the kind of experiment: microbe, parasite or virus in culture. This is another data set of the same source.
Assay [24] has as its system Human alphaherpesvirus 1. The assay is described as follows: microbe, parasite or virus in culture. The source holds these as a separate data set.
Assay [25] has as its system HEL. The description is as §1. Format: functional.
In assay [26] the test system is Human alphaherpesvirus 1. As to the kind of experiment: microbe, parasite or virus in culture. The source holds these as a separate data set.

Each structure is given as a SMILES string. ≈ marks a conversion by molar mass, not a printed value.

Broadly, the EC50 is the concentration giving half of the maximal effect. The IC50 is the concentration needed to halve the response being measured. In general, Ki refers to the dissociation constant of the complex between target and ligand, obtained from inhibition or displacement. Turning to `CO/N=C/[C@H]1OC(n2cnc3c(N)ncnc32)[C@H](O)[C@@H]1O` (some centres undefined), the EC50 in the assay with Vaccinia virus is 100 µg/mL (≈ 340 µM); in the assay with Vero [1] it was > 100 µg/mL; in assay [2] it was > 200 µg/mL; in the assay with Human betaherpesvirus 5 [4], > 10 µg/mL; with Vero [5], > 100 µg/mL; in the assay with Vero [7] it was > 100 µg/mL. Further, the EC50 in the assay with Human betaherpesvirus 5 [8] is > 10 µg/mL; with HeLa [9], > 200 µg/mL; in the assay with HeLa [10], > 200 µg/mL; with Vero [12], > 100 µg/mL; in the assay with Human alphaherpesvirus 2, > 200 µg/mL; with Vero [14] it was 150 µg/mL (≈ 510 µM). Besides, the EC50 was 0.8 µg/mL (≈ 2.72 µM) in the assay on MDCK [16]; > 100 µg/mL in the assay on Vero [18]; > 200 µg/mL with Human alphaherpesvirus 1 [19]; 4 µg/mL (≈ 13.6 µM) in the assay on MDCK [20]; > 200 µg/mL in the assay on Human alphaherpesvirus 1 [21]; > 200 µg/mL in the assay with Human alphaherpesvirus 1 [22]. Also, the IC50 in the assay on L1210 was found to be 271 µg/mL (≈ 921 µM); in the assay with FM3A it was 19 µg/mL (≈ 64.6 µM); in the assay on MOLT-4, 218 µg/mL (≈ 741 µM); in the assay with CCRF-CEM, 330 µg/mL (≈ 1120 µM). Besides, the MIC was >200 in the assay on HeLa [3], 400 in the assay on E6SM, 20 in the assay with MDCK [13] and >200 with Vero [15]. For the same molecule, the CC50 in the assay with HEL [6] was >50. The same molecule had a Ki on Adenosylhomocysteinase [11] of 94.6 nM. The molecule further came in with a k2 on Adenosylhomocysteinase [17] of 0.048 min⁻¹.
On to `Nc1ncnc2c1ncn2[C@@H]1O[C@H](C=NO)[C@@H](O)[C@H]1O`, for which the EC50 was > 4 µg/mL in the assay on Vaccinia virus; > 1 µg/mL in the assay on Vero [1]; < 4 µg/mL in [2]; 0.25 µg/mL (≈ 0.892 µM) with Human betaherpesvirus 5 [4]; > 0.4 µg/mL with Vero [5]; > 1 µg/mL in the assay on Vero [7]. For the same molecule, the concentration for a half-maximal effect (EC50) with Human betaherpesvirus 5 [8] was 0.3 µg/mL (≈ 1.07 µM); with HeLa [9] it was > 4 µg/mL; in the assay on Human alphaherpesvirus 1 [23], > 4 µg/mL; with HeLa [10], > 40 µg/mL; in the assay with Vero [12], > 0.4 µg/mL; in the assay on Human alphaherpesvirus 1 [24] it was > 4 µg/mL. Further, the half-maximal effective concentration (EC50) with Human alphaherpesvirus 2 is > 4 µg/mL; in the assay on Vero [14] it was > 1 µg/mL; in the assay with MDCK [16], 0.8 µg/mL (≈ 2.85 µM); with Vero [18] it was > 0.4 µg/mL; with Human alphaherpesvirus 1 [19] it was > 4 µg/mL; in the assay on MDCK [20], > 0.8 µg/mL. Further, the IC50 in the assay on L1210 turned out to be 1.8 µg/mL (≈ 6.42 µM); in the assay on FM3A, 2.3 µg/mL (≈ 8.21 µM); in the assay on MOLT-4, 5.4 µg/mL (≈ 19.3 µM); with CCRF-CEM it was 2.9 µg/mL (≈ 10.3 µM). Moreover, the MIC in the assay on HeLa [3] is reported as >4; in the assay with E6SM, 7; in the assay on MDCK [13] it was 0.8; in the assay on Vero [15], >1. At Adenosylhomocysteinase [11], this molecule returned an inhibitory constant (Ki) of 670 nM. This molecule also had a k2 on Adenosylhomocysteinase [17] of 0.16 min⁻¹. The molecule also showed a CC50 in the assay on HEL [25] of 0.7.
As for `Nc1ncnc2c1ncn2[C@@H]1O[C@H](C=NO)[C@@H](O)[C@@H]1O`, the 50% effective concentration (EC50) with Vaccinia virus is 20 µg/mL (≈ 71.4 µM); in the assay on Vero [1] it was > 40 µg/mL; with Human betaherpesvirus 5 [4] it was > 10 µg/mL; in the assay with Vero [5], > 40 µg/mL; in the assay with Vero [7] it was > 40 µg/mL; with Human betaherpesvirus 5 [8], > 10 µg/mL. Further, the EC50 was 70 µg/mL (≈ 250 µM) in the assay on Human alphaherpesvirus 1 [23]; > 100 µg/mL with Human alphaherpesvirus 1 [24]; > 100 µg/mL with Human alphaherpesvirus 2; > 100 µg/mL in the assay on Vero [14]; > 40 µg/mL in the assay on Vero [18]; 70 µg/mL (≈ 250 µM) with Human alphaherpesvirus 1 [19]. The half-inhibitory concentration (IC50) turned out to be 10.5 µg/mL (≈ 37.5 µM) in the assay with L1210, 12.7 µg/mL (≈ 45.3 µM) with FM3A, 16.4 µg/mL (≈ 58.5 µM) in the assay on MOLT-4 and 15 µg/mL (≈ 53.5 µM) in the assay with CCRF-CEM. Also, in the assay on E6SM, the MIC was >200. This molecule displayed a CC50 with HEL [25] of 34.
Turning to `CCO/N=C/[C@H]1OC(n2cnc3c(N)ncnc32)[C@H](O)[C@@H]1O` (some centres undefined), the EC50 in the assay with Vaccinia virus is 100 µg/mL (≈ 324 µM); in the assay with Vero [1] it was > 100 µg/mL; in assay [2] it was > 200 µg/mL; in the assay on Human betaherpesvirus 5 [4], > 10 µg/mL; with Vero [5] it was > 100 µg/mL; with Vero [7], > 100 µg/mL. Further, the concentration giving a half-maximal response (EC50) in the assay with Human betaherpesvirus 5 [8] was > 4 µg/mL; in the assay with HeLa [9], > 200 µg/mL; in the assay with Human alphaherpesvirus 1 [23], > 200 µg/mL; with HeLa [10] it was > 200 µg/mL; with Vero [12] it was > 100 µg/mL; in the assay with Human alphaherpesvirus 1 [24], > 200 µg/mL. Moreover, the EC50 with Human alphaherpesvirus 2 is > 200 µg/mL; in the assay with Vero [14], > 200 µg/mL; with MDCK [16], 0.8 µg/mL (≈ 2.59 µM); in the assay with Vero [18], > 100 µg/mL; in the assay with Human alphaherpesvirus 1 [19], > 200 µg/mL; with MDCK [20] it was 1.2 µg/mL (≈ 3.89 µM). Further, the 50% inhibitory concentration (IC50) with L1210 was 295 µg/mL (≈ 957 µM); with FM3A, > 500 µg/mL; in the assay with MOLT-4, > 500 µg/mL; in the assay with CCRF-CEM it was > 500 µg/mL. Also, the MIC is recorded as >200 in the assay with HeLa [3], >200 in the assay with E6SM, 4 with MDCK [13] and >200 in the assay with Vero [15]. At Adenosylhomocysteinase [11], this molecule displayed an inhibitory constant (Ki) of 111 nM. Moreover, on Adenosylhomocysteinase [17], the k2 was determined as 0.037 min⁻¹. Besides, the CC50 in the assay with HEL [25] was >50.
In the case of `O=c1[nH]c(=O)n([C@H]2C[C@H](O)[C@@H](CO)O2)cc1/C=C/Br` [BRIVUDINE], the concentration for a half-maximal effect (EC50) was 0.7 µg/mL (≈ 2.1 µM) in the assay with Vaccinia virus; > 400 µg/mL in the assay on Vero [1]; > 40 µg/mL in the assay on Human betaherpesvirus 5 [4]; > 400 µg/mL in the assay with Vero [5]; > 400 µg/mL with Vero [7]; > 40 µg/mL in the assay with Human betaherpesvirus 5 [8]. The 50% effective concentration (EC50) with Human alphaherpesvirus 1 [26] was > 400 µg/mL; in the assay on Vero [14], > 400 µg/mL; in the assay on Vero [18], > 400 µg/mL; in the assay with Human alphaherpesvirus 1 [19], 0.04 µg/mL (≈ 0.12 µM); in the assay on Human alphaherpesvirus 1 [21] it was > 400 µg/mL; with Human alphaherpesvirus 1 [22] it was 10 µg/mL (≈ 30 µM). Moreover, the MIC against E6SM is on record as >400. Besides, the CC50 in the assay with HEL [6] is listed as >40.
